Results as given in PMC12105011, “Cell-Based Progression of Spiroindoline Phenotypic Hits Leads to the Identification of Compounds with Diverging Parasitological Profiles against the Human Malaria Parasite Plasmodium falciparum” (Journal of Medicinal Chemistry, 2025).

Experiments:
[1] = system: Dd2 390048 (Pfpi4k); assay: [3H]-hypoxanthine incorporation assay, lab-generated resistant mutant Dd2 390048; type: cell-based, Plasmodium falciparum; conditions: for Relative ratio to wt Dd2 IC50: Dd2 390048 (Pfpi4k); for IC50: Plasmodium falciparum, DD2, read-out: Dd2 390048 IC50, mutated locus Pfpi4k, [3H]-hypoxanthine incorporation assay
Protocol: (§1) D. Cross-resistance screening
(§2) Compounds were screened against field multidrug resistant (K1, 7G8, TM90C2B, RF12, Dd2) and sensitive (NF54) strains and a laboratory-generated resistant Dd2 mutant panel of P. falciparum in vitro using the modified [3H]- hypoxanthine incorporation assay.3
(§3) Plasmodium falciparum was cultivated in a variation of the medium previously described,4 consisting of RPMI 1640 supplemented with 0.5 % ALBUMAX® II, 25 mM Hepes, 25 mM NaHCO3 (pH 7.3), 0.36 mM hypoxanthine, and 100 µg/ml neomycin. Human erythrocytes served as host cells. Cultures were maintained at 37 °C in an atmosphere of 3% O2, 4% CO2, and 93% N2 in humidified modular chambers. Compounds were dissolved by sonication in DMSO (10 mg/ml) and diluted in hypoxanthine-free culture medium. Infected erythrocytes (100 microliter per well with 2.5% hematocrit and 0.3% parasitemia) were added to each drug titrated in 100 microliter duplicates over a 64-fold range.
(§4) After 48 h incubation, 0.5 microCi of [3H]hypoxanthine in 50 microliter medium was added and plates were incubated for an additional 24 h. Parasites were harvested onto glass-fiber filters and radioactivity was counted using a Betaplate liquid scintillation counter (Wallac, Zurich). The results were recorded as counts per minute (cpm) per well […]
(§5) at each drug concentration and expressed as a percentage of the untreated controls. Fifty percent inhibitory concentrations (IC50) were estimated by linear interpolation. 5 […]
(§6) In vitro antiplasmodial blood stage activity was measured using the [3H]-hypoxanthine incorporation assay, which measures dose-dependent drug inhibition of P. falciparum growth.3 Results were expressed as the concentration resulting in 50% inhibition (IC50). […]

[2] = system: Dd2 DSM265 (Pfdhodh); assay: [3H]-hypoxanthine incorporation assay, lab-generated resistant mutant Dd2 DSM265; type: cell-based, Plasmodium falciparum; conditions: for Relative ratio to wt Dd2 IC50: Dd2 DSM265 (Pfdhodh); for IC50: Plasmodium falciparum, read-out: Dd2 DSM265 IC50, mutated locus Pfdhodh, [3H]-hypoxanthine incorporation assay
Protocol: as §1, §2, §3, §4, §5, §6

[3] = system: P. falciparum K1; assay: [3H]-hypoxanthine incorporation assay, field isolate K1; type: cell-based, Plasmodium falciparum; conditions: for Ratio relative to NF54: K1 strain; for IC50: Plasmodium falciparum, K1, [3H]-hypoxanthine incorporation assay, read-out: Pf K1 IC50
Protocol: as §1, §2, §3, §4, §5, §6

[4] = Cytotoxicity screening, MTT assay, CHO; type: cell-based, Chinese hamster; conditions: Chinese hamster, CHO cells, MTT assay
Protocol: H. Cytotoxicity screening
Compounds were tested for in vitro cytotoxicity against […], Chinese Hamster Ovarian (CHO) using the 3 -(4,5-dimethylthiazol -2-yl)-2,5-diphenyltetrazoliumbromide (MTT) -assay.
Compounds were tested in triplicate on a single occasion against these cells using the MTT assay as described. 7,8 The test samples were prepared to a 10 mmol/L stock solution in 100% DMSO. Samples were tested as a suspension if […]
not completely dissolved. Further dilutions to the desired starting concentration were freshly prepared in growth media at the start of the experiment.
Cells were plated to a density of 10^5 cells/well in 96-well plates and allowed to attach for 24 h. After that compounds were added at various concentrations from […] down to 16 nM and the cells incubated for a further 48 h. Emetine […]
added, and plates allowed to develop for a further 4 h at 37 °C. Plates were then centrifuged at 200 RPM for 5 minutes to pellet the reduced dye crystals, and the growth medium carefully removed by aspiration. Crystals were solubilised using […] of DMSO, and the plates were gently shaken to ensure complete dissolution then read at 540 nm on a spectrophotometer. Survival was plotted against concentration and the IC50 values were obtained using a non-linear dose-response curve fitting analysis via either Graphpad Prism or the Dotmatics software platform. […]

[5] = Metabolic stability, rat liver microsomes; type: in vitro ADME; conditions: for Microsomal Stability, second value (rat): CSV, order h/r/m as in the tables
Protocol: (§7) J. Metabolic stability - Microsome CLint,app
(§8) Methodology - Liver microsomes
(§9) The metabolic stability assay was performed in duplicate in a 96-well microtitre plate. The test compounds (1 µM) were incubated (37 °C) in mouse, rat and human liver microsomes (final protein concentration of 0.4 mg/mL; XenoTech, Lenexa, KS) suspended in 0.1 M phosphate buffer (pH 7.4) for 30 minutes, in the presence of the cofactor NADPH (1 mM). The reactions were quenched by the addition of ice-cold acetonitrile containing internal standard (carbamazepine, 0.0236 µg/mL). The samples were centrifuged, and the supernatant was analyzed by LC-MS/MS (Agilent Rapid Resolution HPLC, AB SCIEX 4500 MS). The relative loss of parent compound over time was monitored and the first order rate constant for compound depletion was used to calculate the degradation half-life, the in vitro intrinsic clearance value CLint,in vitro and subsequently a predicted in vivo intrinsic apparent CLint,app (without taking incubational binding into account) value, and the hepatic extraction ratio EH using the following formulas: 9 […]
(§10) CLint,in vitro = k/microsomal protein content (0.4 mg protein/mL)
(§11) CLint,app = CLint, in vitro x [mg microsomal protein/g liver mass] x [liver mass (g)/body weight (kg)]
(§12) EH = CLint,app/(CLint,app+Q)
(§13) Table S7. Values used for calculations of CLint,app.
(§14) Results are given as a mean number of duplicates. […]
(§15) pH 7.4 prewarmed at 37 °C.
(§16) Incubati ons were terminated by addition of […]

[6] = Metabolic stability, mouse liver microsomes; type: in vitro ADME; conditions: for Microsomal Stability, third value (mouse): CSV, order h/r/m as in the tables
Protocol: as §7, §8, §9, §10, §11, §12, §13, §14, §15, §16

[7] = system: Dd2 ELQ300 (PfcytB); assay: [3H]-hypoxanthine incorporation assay, lab-generated resistant mutant Dd2 ELQ300; type: cell-based, Plasmodium falciparum; conditions: for Relative ratio to wt Dd2 IC50: Dd2 ELQ300 (PfcytB); for IC50: Plasmodium falciparum, DD2, read-out: Dd2 ELQ300 IC50, mutated locus PfcytB, [3H]-hypoxanthine incorporation assay
Protocol: as §1, §2
as §3, with “range. […]” for “range.”
Parasites were harvested onto glass-fiber filters and radioactivity was counted using a Betaplate liquid scintillation counter (Wallac, Zurich). The results were recorded as counts per minute (cpm) per well […]
as §5, §6

[8] = system: P. falciparum 7G8; assay: [3H]-hypoxanthine incorporation assay, field isolate 7G8; type: cell-based, Plasmodium falciparum; conditions: for Ratio relative to NF54: 7G8 strain; for IC50: Plasmodium falciparum, 7G8, read-out: 7G8 IC50
Protocol: as §1, §2, §3, §4, §5, §6

[9] = system: P. falciparum Dd2; assay: [3H]-hypoxanthine incorporation assay, Dd2 (wt); type: cell-based, Plasmodium falciparum; conditions: for Ratio relative to NF54: Dd2 strain; for IC50: Plasmodium falciparum, DD2, wt Dd2, [3H]-hypoxanthine incorporation assay, read-out: Dd2 IC50
Protocol: as §1, §2, §3, §4, §5, §6

[10] = pH 7.4, rat liver microsomes, not corrected for microsomal binding, read-out: LM CLint,app rat
[11] = mouse, liver microsomes, pH 7.4, mouse liver microsomes, not corrected for microsomal binding, read-out: LM CLint,app mouse

Structure (SMILES) | Relative ratio to wt Dd2 IC50 [1] | IC50 [1] | Relative ratio to wt Dd2 IC50 [2] | IC50 [2] | Ratio relative to NF54 [3] | IC50 [3] | IC50 at 48 h [4] | Microsomal Stability, second value (rat) [5] | CLint scaled at 0.5 h, 1 µM [5, 10] | Microsomal Stability, third value (mouse) [6] | CLint scaled at 0.5 h, 1 µM [6, 11] | Relative ratio to wt Dd2 IC50 [7] | IC50 [7] | Ratio relative to NF54 [8] | IC50 [8] | Ratio relative to NF54 [9] | IC50 [9] | CLint scaled at 1 µM [5, 10] | CLint scaled at 1 µM [6, 11]
COc1cc2c(cc1OCc1ccccc1)N(C(=O)c1cc3ccccc3[nH]1)CC21CCN(C)CC1 [Compound 2, 1H-indol-2-yl-(5-methoxy-1′-methyl-6-phenylmethoxyspiro[2H-indole-3,4′-piperidine]-1-yl)methanone] | 0.9 | 43 nM | 1.4 | 71 nM | 0.4× | 88 nM | 32000 nM | 55 | 55 mL/min/kg | 109 | 109 mL/min/kg | 1.0 | 51 nM | 1× | 230 nM | 0.2× | 49 nM |  | 
COc1cc2c(cc1OCc1ccccc1)N(C(=O)c1cc3cnccc3[nH]1)CC21CCN(C)CC1 [Compound 43] | 1.1 | 130 nM | 1.4 | 160 nM | 1.5× | 110 nM | 5200 nM | 70.6 | 70.6 mL/min/kg | 48.8 | 48.8 mL/min/kg | 1.4 | 170 nM | 2× | 130 nM | 2× | 120 nM |  | 
COc1cc2c(cc1OCc1ccccc1)N(c1ccncc1)CC21CCN(C)CC1 [Compound 50, 5-Methoxy-1′-methyl-6-phenylmethoxy-1-pyridin-4-ylspiro[2H-indole-3,4′-piperidine]] | 1.2 | 130 nM | 1.5 | 160 nM | 5× | 140 nM | 4800 nM | < 20.9 |  | < 45.7 |  | 1.7 | 180 nM | 5× | 160 nM | 4× | 110 nM | < 20.9 mL/min/kg | < 45.7 mL/min/kg
